For assay [1], the system named is histone deacetylase (HDAC). The following applies: cited from earlier work.
A further assay deals with human γ9δ2 T cells. In words: Combination of BrHPP and tyrosine kinase inhibitors on amplification of Vd2/Vg9 T cells in NOD SCID mice. The class given is in vivo. The note with it: BrHPP 50 mg/kg i.p. day 0, IL-2 day 0 to 4, TKI from day 0 for 3 to 5 days; peritoneal lavage day 8.
Assay [2] relates to advanced drug refractory ovarian cancer. The note with it: in vivo; cited from earlier work.
Assay [3] has as its system previously treated metastatic breast cancer. The following applies: in vivo; cited from earlier work.
The next assay concerns various lung cancers. The note with it: in vivo; cited from earlier work.
In assay [4] the test system is γδ T cells. In words: In vitro BrHPP sensitivity test: 8 day culture of peripheral lymphocytes from CML patients undergoing Gleevec therapy, flow cytometry. Type of assay: cell-based, human. As to the method: The study intends to test the sensitivity of γ962 T cells from oncology patients to BrHPP. It aims at identifying cancers and or situations in which a BrHPP treatment would be relevant and those for which it would be less or not beneficial. In brief, a small sample of blood is sufficient to prepare PBMCs and culture in the presence of BrHPP. A result of the level of in vitro amplification of gamma-delta cells by BrHPP can be obtained in about 8 days.
Upon reception of blood, 20 ml blood samples were treated by Ficoll gradient to isolate peripheral lymphocytes, which were then frozen. The lymphocytes were cultured in a 96-well plate (1 million cells/ml) for 8 days in the presence of BrHPP. The percentage of γ962 T cells were then determined by a phenotypic assay (flow cytometry).
In such small scale culture assay, a patient is considered to be responsive to an agonist following 8 days of in vitro stimulation according to two criteria: the percentage of γ962 T cells in culture as well as the rate of amplification of these cells. The amplification rate corresponds to the ratio of number of total γ962 T cells at the end of culture to the total γ962 T cells at the start of culture. The qualitative evaluation of these two criteria was divided into four levels of response, according to the Table 2.
A patient is considered sensitive to BrHPP if the sum of the values of the two criteria is ++ or +++. A classification of 0 or + is considered non-sensitive.

For assay [5], the system named is γδ T cells. In words: BrHPP-induced amplification of γδ T cells in monkeys treated with imatinib mesylate. Type of assay: in vivo. The following applies: BrHPP iv plus IL-2 with oral daily imatinib mesylate 15 mg/kg versus BrHPP alone; days 6 and 20.
In another assay the test system is γ9δ2 T cells. In words: Dose range activation of γδ T cells following iv injection of BrHPP (GLP pharmacology studies). The class given is in vivo, non-human primates.
Another assay relates to Vγ9Vδ2 T cells. In words: Phase I escalating dose clinical trial: amplification of Vγ9Vδ2 T cells by flow cytometry in chemotherapy-treated patients. Type of assay: in vivo, human. The following applies: after second administration (with IL-2). As to the method: Blood samples (4 ml) were withdrawn into EDTA containing tubes. Tubes were shipped overnight at room temperature (RT) before flow cytometry analyses.
Peripheral lymphocytes were analyzed by flow cytometry on total blood, after triple staining with anti-Vdelta2FITC, anti-CD3PE and anti-CD25PC5 antibodies (Vdelta2-FITC : IMMU389 clone, Immunotech-Beckman-Coulter, Marseilles, France; CD3-PE : UCHTI clone, Immunotech-Beckman-Coulter; CD25PC5 : M-A251 clone, Becton Dickinson, Le Pont de Claix, France).
Briefly, 100 μl patient blood was incubated 15 min at RT with 10 μl anti-Vdelta2-FITC, 10 μl anti-CD3-PE and 10 μl anti-CD25PC5 antibodies. Antibodies were washed with 3 ml 1× PBS, centrifuged for 4 min at 1300 rpm at RT and supernatant was discarded. Red cells were lysed with the OptiLyse B reagent (Immunotech-Beckman-Coulter, Marseilles, France) according to the manufacturer's instructions. At the final step, stained white blood cells were recovered by centrifugation and resuspended in 300 μl 1× PBS+0.2% PFA. Flow cytometry analysis on viable cells was performed on a FacsSCAN apparatus (Becton Dickinson) with the FacsDiva software.
(§1) PHOSPHOST™ (Bromohydrin pyrophosphate, BrHPP) was evaluated in an escalating dose clinical trial in patients with advanced/metastatic solid tumors. The therapeutic regimen and pharmaco-toxicology of BrHPP in combination with low dose of IL-2 have previously been characterized in non human primates. The patients received at least 3 injections of BrHPP 3 weeks apart, concomitant with low dose of IL-2 (1 million IU/m^2/day). Pharmacological response was monitored all along the treatment. Based on the results of the phase I trial, a multicenter phase II study on metastatic RCC patients has been scheduled. The clinical drug product was a 200 mg/vial of lyophilized Phosphostim (expressed in mg equivalent of BrHPP anionic form.). The formulation of Phosphostim was reconstituted immediately prior to use with 2 ml of water for injections to make a 100 mg/ml solution. The reconstituted product was diluted in a total volume of 100 ml of ringer lactate buffer infusion vehicle. Phosphostim was administered intravenously over 1 hour.
All patient cohorts received repeated 3-week cycles of Phosphostim alone for the first cycle and Phosphostim in combination with IL-2 for the subsequent cycles. • first cycle: Phosphostim alone, • subsequent cycles: Phosphostim in combination with IL-2
Patients were sequentially allotted to cohorts of progressively higher dose levels of Phosphostim. […] The objective tumor response was assessed after 3 cycles (i.e., every 9 weeks). […]
Drug plasma levels were measured during the first and the second cycles in all patients. […] Biological effect was monitored throughout the trial and studied on PBMC and plasma. […]
(Flow cytometry measures light scatter and fluorescence of single cells or particles in a stream.)

The subject of assay [6] is advanced/metastatic solid tumors. In words: Phase I clinical trial: progression free survival. The class given is in vivo, human. As to the method: as §1
The clinical trial was therefore a phase I, single arm, open-label, national, multi-center, dose-escalation trial in sequential cohorts of patients with advanced/metastatic solid tumors.
Patients were sequentially allotted to cohorts of progressively higher dose levels of Phosphostim. […] The objective tumor response was assessed after 3 cycles (i.e., every 9 weeks).

Where [7] appears, read: phosphostim plus IL-2, iv injection.

Where a name gives a salt, the structure may show the parent alone. Where a SMILES comes first, the peptide text is derived from it. Where only a bound is given, the exact number is not on record here.

Method for human γ9δ2 T cells: Cell line: human PBMC whose γ9δ2 T cells percentage is higher than 0.5% and which has been previously tested for the “sensitivity test”. They were thawed one hour before injection and maintained for one hour in complete medium (RPMI 1640 supplemented with 2 mM L-glutamine, 1 mM Sodium Pyruvate (all from Gibco-BRL, Life Science, Invitrogen) and 10% heat inactivated Fetal Calf Serum (Fetal clone)) in incubator at 37° C.
• FITC anti human V82,Immunotech, ref 1464 • PerCpCy5.5 anti human CD3, Pharmingen, ref 552552 • APC anti human Vγ9 • APC Cy7 anti human CD45, Pharmingen, ref 348815 • PE anti human CD56, Pharmingen, ref 556647
Mice used included (a) NOD SCID female mice aged 8-10 weeks from Charles River Laboratories. Mice were fed and housed under sterilized conditions in Innate-Pharma's animal facility, and (b)NOD SCID female mice aged 10-12 weeks bred at Innate Pharma.
Each group contained 5 mice. Following transfer of human PBMC cells described above, the 4 groups received BrHPP (50 mg/kg, i.p.) on day 0 and IL-2 (2 M/m^2, s.c.) every day from day 0 to day 4. […] On day 8 mice were sacrificed, cells were collected by peritoneal lavage, and γ9δ2 T cell proliferation was assessed by flow cytometry.

In the case of `O=C(CCCCC[C@@H]1NC(=O)[C@H]2CCCCN2C(=O)[C@H](Cc2ccccc2)NC(=O)[C@H](Cc2ccccc2)NC1=O)C1CO1` (some centres unmarked) [trapoxin (TPX), trapoxin] (HELM PEPTIDE1{F.F.[O=C([C@H]1CCCCN1[*:1])[*:2]].[O=C(CCCCC[C@H](N[*:1])C(=O)[*:2])C1CO1]}$PEPTIDE1,PEPTIDE1,1:R1-4:R2$$$V2.0), the “concentration at which HDAC is inhibited” value in assay [1] is recorded as “nanomolar concentrations”.
Regarding `CNC(=O)c1cc(Oc2ccc(NC(=O)Nc3ccc(Cl)c(C(F)(F)F)c3)cc2)ccn1` [Sorafenib, sorafenib], the “effect on γδ T cell proliferation (percentage of γ9δ2 T cells among total cells)” value in the assay with human γ9δ2 T cells was “does not impair”.
Turning to `CC(=O)O[C@H]1C(=O)[C@@]2(C)[C@H]([C@H](OC(=O)c3ccccc3)[C@]3(O)C[C@H](OC(=O)[C@H](O)[C@@H](NC(=O)c4ccccc4)c4ccccc4)C(C)=C1C3(C)C)[C@]1(OC(C)=O)CO[C@@H]1C[C@@H]2O` [taxol, Paclitaxel], the response rate is listed as 19-36% in assay [2], 27-62% in assay [3] and 21-37% in the assay on various lung cancers.
In the case of `Cc1ccc(NC(=O)c2ccc(CN3CCN(C)CC3)cc2)cc1Nc1nccc(-c2cccnc2)n1` [Gleevec, imatinib mesylate, reference compound], the “sensitivity of T cells from Gleevec-treated CML patients to γ9δ2 T cell agonists such as BrHPP” value in the assay with γδ T cells [4] (8 days culture with BrHPP) is reported as “remain sensitive”. Besides, the “effect on γδ T cell proliferation (percentage of γ9δ2 T cells among total cells)” value in the assay on γδ T cells [5] is reported as “does not significantly impair”.
As to “3-(bromomethyl)-3-butanol-1-yl-diphosphate [BrHPP]”, the “γ9δ2 T cell levels return to basal level” value in the assay on γ9δ2 T cells (in most animals (except some treated with a high dose)) was 14 days. In addition, the EC50 in vivo entry in the assay on γ9δ2 T cells (setting [7]) is reported as “about 60 mg/kg”. Besides, the “dose at which a plateau seems to be reached” value with γ9δ2 T cells (setting [7]) is reported as 97 mg/kg. The “dose from which the effect is detected” value with γ9δ2 T cells (setting [7]) is no less than 2.4 mg/kg. In addition, the “amplification rate of Vγ9Vδ2 T cells” value came to 11 × in the assay on Vγ9Vδ2 T cells (Patient 1 (0035), colon cancer, 1500 mg/m2, within six months of Cetuximab/Irinotecan therapy); 6.4 × in the assay with Vγ9Vδ2 T cells (Patient 2 (0039), colon cancer, 1500, Erbitux/Irinotecan ending within three months before); 6.2 × in the assay on Vγ9Vδ2 T cells (Patient 3 (0018), metastatic renal cell carcinoma, 1800 mg/m^2, prior BAY 43-9006 and Avastin ending within a month before); 4.3 × in the assay on Vγ9Vδ2 T cells (Patient 4 (0017), colon cancer, 1200 mg/m^2, Oxaliplatin/5FU/Elvorine/Vinflumine ending within three months before). The “PFS (progression free survival)” value in assay [6] (Patient 3 (0018), metastatic renal cell carcinoma, two cycles, 1800 mg/m^2) is 72 weeks. Also, the PFS in [6] (Patient 4 (0017), colon cancer, three cycles, 1200 mg/m^2) is 39 weeks. For the same compound, the non-sensitive patients entry in the assay on γδ T cells [4] (of 19 CML patients undergoing imitanib mesylate treatment) is given as “One”. In the assay with γδ T cells [4] (of 19 CML patients undergoing imitanib mesylate treatment, sum of the two criteria of Table 2), the “patients with values of either ++ or +++ (responsive to BrHPP induced amplification)” value is on record as 18 patients.
Take `CC(/C=C/C(=O)NO)=C\[C@@H](C)C(=O)c1ccc(N(C)C)cc1` [trichostatin A]: the “concentration at which HDAC is inhibited” value in assay [1] is on record as “nanomolar concentrations”.

(Values after patent US20100029674A1, “Methods of Using Phosphoantigen for the Treatment of Cancer” (INNATE PHARMA, S.A., priority 2007, published 2010).)
